Like-named read-outs stand apart in the source and are kept apart here.
Experiments:
[1] = system: W2 strain (CQ-resistant) of P. falciparum; experiment: Host cell-mediated drug degradation: antiplasmodial activity of uRBC supernatants; format: cell-based, Plasmodium falciparum; conditions: uRBC 1.0% hematocrit; for IC50: Plasmodium falciparum, 0.16 h, W2, pLDH, median ± SEM, read-out: IC50 of supernatants harvested at 0.16 h; for Fold changes (24 h/0.16 h): W2
Procedure: (§1) Each well of 96-well plates was filled with 125 µL drug (1000 nM) and 125 µL uninfected red blood cells (uRBC), which were mixed to obtain a final drug concentration of 500 nM and 2.5% or 1.0% hematocrit. The plates were incubated at 37°C in the standard gas mixture. After each time point (10 min, 6 h, and 24 h), supernatants were carefully harvested and stored at −80°C until use. Untreated uRBC incubated at the same times were used as negative controls, and DHA and AQ were employed as standard drugs. Next, supernatants were diluted in a complete medium in six different dilutions and were aliquoted in new plates. The antimalarial activity of these supernatants and freshly dissolved drugs was determined in an asynchronous parasite culture of P. falciparum (3D7, D10, and W2 strains) for 72 h using the same method described above, and parasite viability was assessed by the pLDH ([38]) and SYBR Green I ([41]) methods. Only the experiments where the IC50 values of the supernatants harvested at 10 min were the same as those of the respective fresh drugs were considered for determining equivalent drug concentration. […] Decay in drug concentration was estimated by using the normalized slope values calculated from linear regression fits using the slope values of a standard curve as reference. Three independent experiments were performed using two replicates.
(§2) Figure S5: Data associated to Figure 3 in the main text of the manuscript. Panel A: Representative response-concentration curves of the antiplasmodial activity of supernatant-derived uRBC (2.5% hematocrit) harvested at indicated times (0.16, 6, and 24 h). Drug activity on parasite viability was determined 72 h after parasite incubation (3D7 strain, asynchronous). Values were subtracted from control (without treatment), transformed, and normalized to calculate nonlinear fit. Parasite viability was determined by SYBR Green I. Values are mean and error bars are the standard deviation of a single experiment, each concentration in duplicate. Panel B: A table summarizing the IC50 values. Footnotes: ^[a] Parasite viability was determined by SYBR Green I. ^[b^] Parasite viability was determined by pLDH readout. Values are median ± SEM of three independent experiments, each concentration in duplicate. ^[c^] […] These values are expressed as mean and 95% confidence interval (CI) of one experiment, each concentration in duplicate. AQ = amodiaquine; DHA = dihydroartemisinin; uRBC = uninfected red blood cells. Unpaired two-tailed t-test at 95% CI: *p <0.05; **p <0.01.

[2] = system: D10 strain of P. falciparum; experiment: as above; format: cell-based, Plasmodium falciparum; conditions: uRBC 1.0% hematocrit; for IC50: Plasmodium falciparum, 0.16 h, D10, pLDH, median ± SEM, read-out: IC50 of supernatants harvested at 0.16 h; for Fold changes (24 h/0.16 h): D10
Procedure: as §1, §2

[3] = system: F32-TEM (ART-sensitive) strain of P. falciparum; experiment: Standard chemosensitivity assay (SYBR Green I, 48 h); format: cell-based; conditions: Plasmodium falciparum, F32, 48 h, read-out: IC50 (nM, mean ± SD) for P. falciparum (48 h), F32-TEM (ART-sensitive)
Procedure: (§3) Compounds were dissolved in DMSO and diluted in RPMI-1640 medium into five different concentrations (0.1–1000 nM). Each well of 96-well plates was filled with 100 µL drug at each concentration and 100 µL synchronized ring-stages of the ART-resistant strain F32-ART or its ART-susceptible twin strain F32-TEM at final parasitemia of 1% and 2% hematocrit. Plates were incubated for 48 h at 37°C and 5% CO2. The drugs were washed out in 1× phosphate-buffered saline (PBS) (Sigma-Aldrich), the plates were frozen and thawed, and then, the lysed parasites were transferred to black 96-well plates. SYBR Green I (Fisher Scientific, Illkirch, France) at a 2× concentration in a lysis buffer (20 mM TRIS base, pH 7.5, 20 mM EDTA, 0.008% wt/vol saponin, 0.08% wt/vol Triton X-100) was then added and the plates were incubated for 1 h at room temperature in the dark. Fluorescence was measured at 485 nm excitation and 528 nm emission in a VICTOR Nivo plate reader (Perkin Elmer, Waltham, USA) and the IC50s values were then calculated using Prism 7 (GraphPad, San Diego, USA).
(§4) ^[a] Parasites were exposed for 48 h of incubation in the presence of drugs, then parasite viability was determined using SYBR Green I. Mean of two independent experiments. DHA = dihydroartemisinin; SD = standard deviation.

[4] = system: F32-ART (ART-resistant) strain of P. falciparum; experiment: as above; format: cell-based; conditions: Plasmodium falciparum, F32, 48 h
Procedure: as §3, §4

[5] = read-out: IC50 (nM, mean ± SD) for P. falciparum (48 h), F32-ART (ART-resistant)

| Structure (SMILES) | IC50 [1] [nM] | Fold changes (24 h/0.16 h) [1] | IC50 [2] [nM] | Fold changes (24 h/0.16 h) [2] | IC50 [3] [nM] | IC50 [4, 5] [nM] | IC50 ([4]; read-out: IC50 in the standard chemosensitivity assay) [nM] |
| --- | --- | --- | --- | --- | --- | --- | --- |
| C[C@H]1[C@@H](O)O[C@@H]2O[C@@]3(C)CC[C@H]4[C@H](C)CC[C@@H]1[C@@]24OO3 [DHA, dihydroartemisinin, reference compound] | 1.9 ± 0.25 | 15.82 ± 2.21 | 3.5 ± 0.43 | 19.9 ± 0.09 | 2 ± 0.2 | 0.8 ± 0.8 | < 5 |
| COCCOCCOCCOCCn1c(-c2ccc(-n3cc(-c4ccc(OC5OC6OC7(C)CCC8C(C)CCC(C5C)C68OO7)cc4)nn3)cc2)nc2ccccc21 (stereo not drawn) [Hybrid 1] |  | 0.98 ± 0.22 | 1.8 ± 0.08 | 0.90 ± 0.08 | 2.6 ± 0.6 | 4.2 ± 1.3 |  |
| CC1CCC2C(C)C(OC(=O)CCC(=O)OCCNc3ccnc4cc(Cl)ccc34)OC3OC4(C)CCC1C32OO4 (stereo not drawn) [Hybrid 2] | 4.3 ± 1.74 | 1.38 ± 0.15 | 3.7 ± 1.32 | 1.25 ± 0.46 | 4.8 ± 1.2 | 4.5 ± 2.5 |  |

Source: article PMC11232401, “Characterization of antimalarial activity of artemisinin-based hybrid drugs” (Antimicrobial Agents and Chemotherapy, 2024)
